The source of these data is patent publication US20250179073A1, “TRICYCLIC HETEROCYCLE COMPOUNDS AS IAP ANTAGONISTS” (Ascentage Pharma (Suzhou) Co., Ltd., priority 2022, published 2025).

A value given as a limit tells only on which side of the number the result lay.

The IC50 is the midpoint of a concentration-inhibition curve.

One test concerns MDA-MB-231 cells. The test is described as follows: Cell proliferation assay (CellTiter-Glo), MDA-MB-231. The conditions noted are these: Homo sapiens, MDA-MB-231, 72 h, 72 h treatment, Celltiter-Glo luminescence. In kind it is cell-based. The essentials: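 MDA-MB-231 (RPMI-1640/10% FBS) and EVSA-T (MEM/10% FBS) cells, 10000 cells/well, exposed 72 h to compound at […]. Viability read by CellTiter-Glo luminescence after 15 min at room temperature. IC50 from control-normalised curve fitting.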

The test system of the next test is EVSA-T cells. The test is described as follows: Cell proliferation assay (CellTiter-Glo), EVSA-T. Format: cell-based. The following applies: Homo sapiens, EVSA-T, 72 h, 72 h treatment, Celltiter-Glo luminescence. The method, then: Example 238: Cell Proliferation Assay
MDA-MB-231 and EVSA-T cells (10000 cells/well) were plated onto 96-well plates (Corning, Cat #3917) in 95 μL of medium (RPMI-1640 containing 10% FBS and MEM containing 10% FBS, respectively). Compounds with various concentrations ([…]) were added to the wells. After treatment for 72 h, 30 μL of Celltiter-Glo reagent (Promega, Cat #G7573) was added and incubated at room temperature for 15 min, then the luminescent signal was determined using a microplate reader (Biotek, SynergyH1). The inhibitor dose-response curves were analyzed using normalized IC50 regression curve fitting with control based normalization.
A general note: ATP-based viability assays read luminescence as a measure of living cells.

Consider `C[C@@H]1CN(CC(=O)N2CC(C)(C)c3c2cc(Cc2ccc(F)cc2)c2nc(C(F)(F)F)cn32)[C@@H](CN2[C@@H](C)COC[C@@H]2C)CN1` [Compound 162, 2-((2R,5R)-2-(((3S,5S)-3,5-dimethylmorpholino)methyl)-5-methylpiperazin-1-yl)-1-(4-(4-fluorobenzyl)-8,8-dimethyl-2-(trifluoromethyl)-7,8-dihydro-6H-imidazo[1,2-a]pyrrolo[2,3-e]pyridin-6-yl)ethan-1-one], for which the IC50 with MDA-MB-231 cells was determined as 46 nM; in the test with EVSA-T cells, 10 nM.

Consider `C[C@@H]1CN(CC(=O)N2CC(C)(C)c3c2cc(Cc2ccc(F)cc2)c2nn(CC(C)(C)O)c(=O)n32)[C@@H](CN2CCOC[C@H]2C)CN1` [Compound 231, 4-(4-fluorobenzyl)-2-(2-hydroxy-2-methylpropyl)-8,8-dim ethyl-6-(2-((2R,5R)-5-methyl-2-(((R)-3-methylmorpholino)methyl)piperazin-1-yl)acetyl)-2,6,7,8-tetrahydro-1H-pyrrolo[2,3-e][1,2,4]triazolo[4,3-a]pyridin-1-one], for which the IC50 in the test on MDA-MB-231 cells turned out to be 28 nM; in the test on EVSA-T cells it was 4 nM.

For the compound `C[C@@H]1CN(CC(=O)N2CC(C)(C)c3c2cc(Cc2ccc(F)cc2)c2ncnn32)[C@@H](CN2Cc3ccccc3C2=O)CN1` [Compound 94, 2-(((2R,5R)-1-(2-(4-(4-fluorobenzyl)-8,8-dimethyl-7,8-dihydro-6H-pyrrolo[2,3-e][1,2,4]triazolo[1,5-a]pyridin-6-yl)-2-oxoethyl)-5-methylpiperazin-2-yl)methyl)isoindolin-1-one], the IC50 in the test with MDA-MB-231 cells worked out at 26 nM; with EVSA-T cells, 4 nM.

Consider `C[C@@H]1CN(CC(=O)N2CC(C)(C)c3c2cc(Cc2ccc(F)cc2)c2nn(C4CC(O)C4)c(=O)n32)[C@@H](CN2CCOC[C@H]2C)CN1` (stereo partly drawn) [Compound 271, 4-(4-fluorobenzyl)-2-(3-hydroxycyclobutyl)-8,8-dimethyl-6-(2-((2R,5R)-5-methyl-2-(((R)-3-methylmorpholino)methyl)piperazin-1-yl)acetyl)-2,6,7,8-tetrahydro-1H-pyrrolo[2,3-e][1,2,4]triazolo[4,3-a]pyridin-1-one], for which the IC50 with MDA-MB-231 cells amounted to 22 nM; in the test on EVSA-T cells, 2.2 nM.

Consider `CC(=O)N1CCN(C[C@H]2CN[C@H](C)CN2CC(=O)N2CC(C)(C)c3c2cc(Cc2ccc(F)cc2)c2nc(C(F)(F)F)cn32)[C@H](C)C1` [Compound 174, 2-((2R,5R)-2-(((R)-4-acetyl-2-methylpiperazin-1-yl)methy 1)-5-methylpiperazin-1-yl)-1-(4-(4-fluorobenzyl)-8,8-dimethyl-2-(trifluoromethyl)-7,8-dihydro-6H-imidazo[1,2-a]pyrrolo[2,3-e]pyridin-6-yl)ethan-1-one], for which the IC50 in the test with MDA-MB-231 cells was 450 nM.

Take `Cc1nccn1C[C@H]1CN[C@H](C)CN1CC(=O)N1CC(C)(C)c2c1cc(Cc1ccc(F)cc1)c1ncnn21` [Compound 91, 1-(4-(4-fluorobenzyl)-8,8-dimethyl-7,8-dihydro-6H-pyrrolo[2,3-e][1,2,4]triazolo[1,5-a]pyridin-6-yl)-2-((2R,5R)-5-methyl-2-((2-methyl-1H-imidazol-1-yl)methyl)piperazin-1-yl)ethan-1-one]: the IC50 in the test on MDA-MB-231 cells stood at 80 nM.

With `C[C@@H]1CN(CC(=O)N2CC(C)(C)c3c2cc(Cc2ccc(F)cc2)c2nc(S(C)(=O)=O)nn32)[C@@H](CN2CCOC[C@H]2C)CN1` [Compound 200, 1-(4-(4-fluorobenzyl)-8,8-dimethyl-2-(methylsulfonyl)-7,8-dihydro-6H-pyrrolo[2,3-e][1,2,4]triazolo[1,5-a]pyridin-6-yl)-2-((2R,5R)-5-methyl-2-(((R)-3-methylmorpholino)methyl)piperazin-1-yl)ethan-1-one], the IC50 in the test with MDA-MB-231 cells worked out at 70 nM.

Turning to `C[C@@H]1CN(CC(=O)N2CC(C)(C)c3c2cc(Cc2ccc(F)cc2)c2nn(C(CO)CO)c(=O)n32)[C@@H](CN2CCOC[C@H]2C)CN1` [Compound 268, 2-(1,3-dihydroxypropan-2-yl)-4-(4-fluorobenzyl)-8,8-dimethyl-6-(2-((2R,5R)-5-methyl-2-(((R)-3-methylmorpholino)methyl)piperazin-1-yl)acetyl)-2,6,7,8-tetrahydro-1H-pyrrolo[2,3-e][1,2,4]triazolo[4,3-a]pyridin-1-one], the IC50 in the test on MDA-MB-231 cells turned out to be 350 nM.

As to `C[C@@H]1CN(CC(=O)N2CC(C)(C)c3c2cc(Cc2ccc(F)cc2)c2nc(NS(C)(=O)=O)nn32)[C@@H](CN2CCOC[C@H]2C)CN1` [Example 15, N-(4-(4-fluorobenzyl)-8,8-dimethyl-6-(2-((2R,5R)-5-methyl-2-(((R)-3-methylmorpholino)methyl)piperazin-1-yl)acetyl)-7,8-dihydro-6H-pyrrolo[2,3-e][1,2,4]triazolo[1,5-a]pyridin-2-yl)methanesulfonamide], the IC50 in the test with MDA-MB-231 cells is more than 10000 nM.

Regarding `C[C@@H]1CN(CC(=O)N2CC(C)(C)c3c2cc(Cc2c(F)cc(F)cc2F)c2nncn32)[C@@H](CN2CCOC[C@H]2C)CN1` [Compound 164, 1-(8,8-dimethyl-4-(2,4,6-trifluorobenzyl)-7,8-dihydro-6H-pyrrolo[2,3-e][1,2,4]triazolo[4,3-a]pyridin-6-yl)-2-((2R,5R)-5-methyl-2-(((R)-3-methylmorpholino)methyl)piperazin-1-yl)ethan-1-one], the IC50 in the test with MDA-MB-231 cells amounted to 430 nM.

Take `Cc1nc(C)n2c3c(cc(Cc4ccc(F)cc4)c12)N(C(=O)CN1C[C@@H](C)NC[C@@H]1CN1CCOC[C@H]1C)CC3(C)C` [Compound 124, 1-(4-(4-fluorobenzyl)-1,3,8,8-tetramethyl-7,8-dihydro-6H-imidazo[1,5-a]pyrrolo[2,3-e]pyridin-6-yl)-2-((2R,5R)-5-methyl-2-(((R)-3-methylmorpholino)methyl)piperazin-1-yl)ethan-1-one]: in the test on MDA-MB-231 cells, the IC50 came to 290 nM.

Turning to `C[C@@H]1CN(CC(=O)N2CC(C)(C)c3c2cc(N2CCNc4cc(F)ccc42)c2ncnn32)[C@@H](CN2CCOC[C@H]2C)CN1` [Compound 198, 1-(4-(6-fluoro-3,4-dihydroquinoxalin-1(2H)-yl)-8,8-dimethyl-7,8-dihydro-6H-pyrrolo[2,3-e][1,2,4]triazolo[1,5-a]pyridin-6-yl)-2-((2R,5R)-5-methyl-2-(((R)-3-methylmorpholino)methyl)piperazin-1-yl)ethan-1-one], in the test on MDA-MB-231 cells, the IC50 turned out to be 1000 nM.

As for `C[C@@H]1CN(CC(=O)N2CC(C)(C)c3c2cc(Cc2ccc(F)cc2)c2nn(CC(C)(C)O)c(=O)n32)[C@@H](CN2CC3CC(C2)O3)CN1` [Compound 286, 6-(2-((2R,5R)-2-((6-oxa-3-azabicyclo[3.1.1]heptan-3-yl)methyl)-5-methylpiperazin-1-yl)acetyl)-4-(4-fluorobenzyl)-2-(2-hydroxy-2-methylpropyl)-8,8-dimethyl-2,6,7,8-tetrahydro-1H-pyrrolo[2,3-e][1,2,4]triazolo[4,3-a]pyridin-1-one], the IC50 with MDA-MB-231 cells was found to be 270 nM.

With `C[C@@H]1CN(CC(=O)N2CC(C)(C)c3c2cc(Cc2ccc(F)cc2)c2nc(N4CCNC4=O)nn32)[C@@H](CN2CCOC[C@H]2C)CN1` [Compound 248, 1-(4-(4-fluorobenzyl)-8,8-dimethyl-6-(2-((2R,5R)-5-methyl-2-(((R)-3-methylmorpholino)methyl)piperazin-1-yl)acetyl)-7,8-dihydro-6H-pyrrolo[2,3-e][1,2,4]triazolo[1,5-a]pyridin-2-yl)imidazolidin-2-one], in the test on MDA-MB-231 cells, the IC50 amounted to 47 nM.
